Source: patent US10238631B2, “Sesquiterpene derivatives and their use in inflammation or cancer treatment” (Academia Sinica, priority 2014, dated 2019)

These molecules were tested on LPS-induced nitric oxide (NO) production in RAW 264.7 cells (assay: Nitric oxide production in LPS-stimulated macrophages (Griess)). Settings: Mus musculus; LPS-stimulated RAW264.7, nitrite 24 h after LPS.
Assay type: cell-based, mouse
Method: (§1) Marcophages (2×10^5 cells/well in 96-well plate) were treated with compounds for 1 h, then incubated further for 24 h with or without the presence of […] LPS in the cultural medium. Nitrite levels in cell culture medium were determined by the Griess reaction method. In parallel to the Griess assays, macrophage cell viabilities were determined using the MTT based colorimetric assay.
LPS from the outer membrane of Gram-negative bacteria can induce mRNA or protein levels of inducible nitric oxide synthase (iNOS), which catalyzes oxidative deamination of L-arginine to produce nitric oxide (NO). Once NO is predominantly produced, it interacts with superoxide anion and generates highly reactive oxidants resulting in cellular inflammation, DNA, protein and tissue damages, carcinogenesis, and antiapoptosis. We used in vitro LPS stimulated inflammation in RAW264.7 cell system to evaluate the effect of DET and its derivatives DETDs on NO production by determination of nitrite level (equivalent to NO level) in culture medium 24 h after LPS treatment.

Row | Structure (SMILES) | IC50 [µM]
1 | C=C1C(=O)OC2CC3=C[C@@H](C/C(C)=C/C(OC(=O)/C=C/C)[C@H]12)OC3=O (stereo partly drawn) [DETD-24] | 4.4
2 | C=C1C(=O)OC2CC3=C[C@@H](C/C(C)=C/C(OC(=O)C=C(C)CCC=C(C)C)[C@H]12)OC3=O (stereo partly drawn) [DETD-14] | 2.2
3 | C=C1C(=O)OC2CC3=C[C@@H](C/C(C)=C/C(OC(=O)Cc4cccc5cccnc45)[C@H]12)OC3=O (stereo partly drawn) [DETD-52] | > 10
4 | C=C1C(=O)OC2CC3=C[C@@H](C/C(C)=C/[C@H](OC(=O)Cc4cccc5ccccc45)[C@H]12)OC3=O (stereo partly drawn) [DETD-62] | > 10

What follows are molecules tested on MCF-7 (ER+, Her2−) human breast cancer cells (assay: MTT cell viability assay, MCF-7 cells). Settings: MCF7, 24 h, read-out: IC50 on cell viability, MCF-7 (ER+, Her2−).
Assay type: cell-based
Method: (§2) Normal or cancer cells (2×10^3 to 1×10^4 cells/well) were seeded in 96-well plate for overnight and treated with different compounds for 24 h to 72 h. Cells growth were determined by MTT-based colorimetric assays according to. Viability of the test cells treated with vehicle (0.5% DMSO) only was defined as 100% viable. Survival of cells after treatment with DETDs was calculated using the following formula: viable cell number (%)=OD570 (treated cell culture)/OD570 (vehicle control)×100.
(§3) Sixty DETDs were derived from parental compound […] and tested for anti-breast cancer cell activity.

Row | Structure (SMILES) | IC50 [µM]
5 | C=C1C(=O)OC2CC3=C[C@@H](C/C(C)=C/C(OC(=O)/C=C/C)[C@H]12)OC3=O (stereo partly drawn) [DETD-24] | 3.9
6 | C=C1C(=O)OC2CC3=C[C@@H](C/C(C)=C/C(OC(=O)C=C(C)CCC=C(C)C)[C@H]12)OC3=O (stereo partly drawn) [DETD-14] | > 7.5
7 | C=C1C(=O)OC2CC3=C[C@@H](C/C(C)=C/C(OC(=O)Cc4cccc5cccnc45)[C@H]12)OC3=O (stereo partly drawn) [DETD-52] | > 7.5
8 | C=C1C(=O)OC2CC3=C[C@@H](C/C(C)=C/[C@H](OC(=O)Cc4cccc5ccccc45)[C@H]12)OC3=O (stereo partly drawn) [DETD-62] | > 7.5

The molecules below were run on Melanocyte (Normal cells) (assay: MTT cell viability assay, normal melanocytes). Settings: Homo sapiens, Melanocyte, 24 h.
Assay type: cell-based, human
Method: as §2
(§4) Several genes are involved in melanoma development and pathology; specifically, mutation in V-raf murine sarcoma viral oncogene homolog B1 (B-RAF) occurs approximately 50-60% and in neuroblastoma RAS viral oncogene homolog (N-RAS) occurs about 30% of malignant melanomas. A spectrum of wild-type or mutated melanoma cell lines including B16-F10, MeWo, A375, A2058, HTB-68, and melanocyte were used to study anti-melanoma cell proliferation activity of parental phytocompound DET and newly synthesized DETDs.

Row | Structure (SMILES) | IC50 [µM]
9 | C=C1C(=O)OC2CC3=C[C@@H](C/C(C)=C/C(OC(=O)/C=C/C)[C@H]12)OC3=O (stereo partly drawn) [DETD-24] | > 10
10 | C=C1C(=O)OC2CC3=C[C@@H](C/C(C)=C/C(OC(=O)C=C(C)CCC=C(C)C)[C@H]12)OC3=O (stereo partly drawn) [DETD-14] | > 10
11 | C=C1C(=O)OC2CC3=C[C@@H](C/C(C)=C/C(OC(=O)Cc4cccc5cccnc45)[C@H]12)OC3=O (stereo partly drawn) [DETD-52] | > 10
12 | C=C1C(=O)OC2CC3=C[C@@H](C/C(C)=C/[C@H](OC(=O)Cc4cccc5ccccc45)[C@H]12)OC3=O (stereo partly drawn) [DETD-62] | > 10

Each molecule was assayed on M10 normal mammary epithelial cells (assay: MTT cell viability assay, M10 normal cells). Settings: Homo sapiens, Epithelial cell, 24 h.
Assay type: cell-based, human
Method: as §2, §3

Row | Structure (SMILES) | IC50 [µM]
13 | C=C1C(=O)OC2CC3=C[C@@H](C/C(C)=C/C(OC(=O)/C=C/C)[C@H]12)OC3=O (stereo partly drawn) [DETD-24] | > 7.5
14 | C=C1C(=O)OC2CC3=C[C@@H](C/C(C)=C/C(OC(=O)C=C(C)CCC=C(C)C)[C@H]12)OC3=O (stereo partly drawn) [DETD-14] | > 7.5
15 | C=C1C(=O)OC2CC3=C[C@@H](C/C(C)=C/C(OC(=O)Cc4cccc5cccnc45)[C@H]12)OC3=O (stereo partly drawn) [DETD-52] | > 7.5
16 | C=C1C(=O)OC2CC3=C[C@@H](C/C(C)=C/[C@H](OC(=O)Cc4cccc5ccccc45)[C@H]12)OC3=O (stereo partly drawn) [DETD-62] | > 7.5

Each molecule was assayed on MeWo (No NRAS or BRAF mutation) (assay: MTT cell viability assay, MeWo melanoma). Settings: Homo sapiens, MeWo, 24 h.
Assay type: cell-based, human
Method: as §2, §4

Row | Structure (SMILES) | IC50 [µM]
17 | C=C1C(=O)OC2CC3=C[C@@H](C/C(C)=C/C(OC(=O)/C=C/C)[C@H]12)OC3=O (stereo partly drawn) [DETD-24] | > 10
18 | C=C1C(=O)OC2CC3=C[C@@H](C/C(C)=C/C(OC(=O)C=C(C)CCC=C(C)C)[C@H]12)OC3=O (stereo partly drawn) [DETD-14] | > 10
19 | C=C1C(=O)OC2CC3=C[C@@H](C/C(C)=C/C(OC(=O)Cc4cccc5cccnc45)[C@H]12)OC3=O (stereo partly drawn) [DETD-52] | > 10
20 | C=C1C(=O)OC2CC3=C[C@@H](C/C(C)=C/[C@H](OC(=O)Cc4cccc5ccccc45)[C@H]12)OC3=O (stereo partly drawn) [DETD-62] | > 10

The molecules below were run on B16-F10 (NRAS mutation) (assay: MTT cell viability assay, B16-F10 melanoma). Settings: Mus musculus, B16-F10, 24 h, 24 h, read-out: IC50 on cell viability, B16-F10 (NRAS mutation).
Assay type: cell-based
Method: as §2, §4

Row | Structure (SMILES) | IC50 [µM]
21 | C=C1C(=O)OC2CC3=C[C@@H](C/C(C)=C/C(OC(=O)/C=C/C)[C@H]12)OC3=O (stereo partly drawn) [DETD-24] | > 10
22 | C=C1C(=O)OC2CC3=C[C@@H](C/C(C)=C/C(OC(=O)C=C(C)CCC=C(C)C)[C@H]12)OC3=O (stereo partly drawn) [DETD-14] | > 10
23 | C=C1C(=O)OC2CC3=C[C@@H](C/C(C)=C/C(OC(=O)Cc4cccc5cccnc45)[C@H]12)OC3=O (stereo partly drawn) [DETD-52] | > 10
24 | C=C1C(=O)OC2CC3=C[C@@H](C/C(C)=C/[C@H](OC(=O)Cc4cccc5ccccc45)[C@H]12)OC3=O (stereo partly drawn) [DETD-62] | 9.3

What follows are molecules tested on RAW264.7 (normal macrophage) (assay: MTT cell viability assay, RAW264.7 macrophages). Settings: Mus musculus, RAW264.7, 24 h.
Assay type: cell-based, mouse
Method: as §2, §1

Row | Structure (SMILES) | IC50 [µM]
25 | C=C1C(=O)OC2CC3=C[C@@H](C/C(C)=C/C(OC(=O)/C=C/C)[C@H]12)OC3=O (stereo partly drawn) [DETD-24] | > 10
26 | C=C1C(=O)OC2CC3=C[C@@H](C/C(C)=C/C(OC(=O)C=C(C)CCC=C(C)C)[C@H]12)OC3=O (stereo partly drawn) [DETD-14] | > 10
27 | C=C1C(=O)OC2CC3=C[C@@H](C/C(C)=C/C(OC(=O)Cc4cccc5cccnc45)[C@H]12)OC3=O (stereo partly drawn) [DETD-52] | > 10
28 | C=C1C(=O)OC2CC3=C[C@@H](C/C(C)=C/[C@H](OC(=O)Cc4cccc5ccccc45)[C@H]12)OC3=O (stereo partly drawn) [DETD-62] | > 10

The molecules below were run on A375 (BRAF mutation) (assay: MTT cell viability assay, A375 melanoma). Settings: Homo sapiens, A-375, 24 h, 24 h, MTT; read-out: IC50 on cell viability, A375 (BRAF mutation).
Assay type: cell-based, human
Method: as §2, §4
To investigate whether or not DETD-35 show synergism with PLX4032 against A375 melanoma cells, we performed anti-proliferation assay using MTT reagent to obtain IC50 of each compound. […] The synergistic effect was quantified by combination index (CI) analysis as stated above.

Row | Structure (SMILES) | IC50 [µM]
29 | C=C1C(=O)OC2CC3=C[C@@H](C/C(C)=C/C(OC(=O)/C=C/C)[C@H]12)OC3=O (stereo partly drawn) [DETD-24] | > 10
30 | C=C1C(=O)OC2CC3=C[C@@H](C/C(C)=C/C(OC(=O)C=C(C)CCC=C(C)C)[C@H]12)OC3=O (stereo partly drawn) [DETD-14] | > 10
31 | C=C1C(=O)OC2CC3=C[C@@H](C/C(C)=C/C(OC(=O)Cc4cccc5cccnc45)[C@H]12)OC3=O (stereo partly drawn) [DETD-52] | > 10
32 | C=C1C(=O)OC2CC3=C[C@@H](C/C(C)=C/[C@H](OC(=O)Cc4cccc5ccccc45)[C@H]12)OC3=O (stereo partly drawn) [DETD-62] | 5

What follows are molecules tested on A2058 (BRAF mutation) (assay: MTT cell viability assay, A2058 melanoma). Settings: Homo sapiens, A2058, 24 h.
Assay type: cell-based, human
Method: as §2, §4

Row | Structure (SMILES) | IC50 [µM]
33 | C=C1C(=O)OC2CC3=C[C@@H](C/C(C)=C/C(OC(=O)/C=C/C)[C@H]12)OC3=O (stereo partly drawn) [DETD-24] | > 10
34 | C=C1C(=O)OC2CC3=C[C@@H](C/C(C)=C/C(OC(=O)C=C(C)CCC=C(C)C)[C@H]12)OC3=O (stereo partly drawn) [DETD-14] | > 10
35 | C=C1C(=O)OC2CC3=C[C@@H](C/C(C)=C/C(OC(=O)Cc4cccc5cccnc45)[C@H]12)OC3=O (stereo partly drawn) [DETD-52] | > 10
36 | C=C1C(=O)OC2CC3=C[C@@H](C/C(C)=C/[C@H](OC(=O)Cc4cccc5ccccc45)[C@H]12)OC3=O (stereo partly drawn) [DETD-62] | 8.7

These molecules were tested on HTB-68 (NRAS mutation) (assay: MTT cell viability assay, HTB-68 melanoma). Settings: Homo sapiens, 24 h.
Assay type: cell-based, human
Method: as §2, §4

Row | Structure (SMILES) | IC50 [µM]
37 | C=C1C(=O)OC2CC3=C[C@@H](C/C(C)=C/C(OC(=O)/C=C/C)[C@H]12)OC3=O (stereo partly drawn) [DETD-24] | > 10
38 | C=C1C(=O)OC2CC3=C[C@@H](C/C(C)=C/C(OC(=O)C=C(C)CCC=C(C)C)[C@H]12)OC3=O (stereo partly drawn) [DETD-14] | > 10
39 | C=C1C(=O)OC2CC3=C[C@@H](C/C(C)=C/C(OC(=O)Cc4cccc5cccnc45)[C@H]12)OC3=O (stereo partly drawn) [DETD-52] | > 10
40 | C=C1C(=O)OC2CC3=C[C@@H](C/C(C)=C/[C@H](OC(=O)Cc4cccc5ccccc45)[C@H]12)OC3=O (stereo partly drawn) [DETD-62] | 9

What follows are molecules tested on MDA-MB-231 (ER−, PR−, Her2−) human breast cancer cells (assay: MTT cell viability assay, MDA-MB-231 cells). Settings: Homo sapiens, MDA-MB-231, 24 h, read-out: IC50 on cell viability, MDA-MB-231 (ER−, PR−, Her2−).
Assay type: cell-based
Method: as §2, §3

Row | Structure (SMILES) | IC50 [µM]
41 | C=C1C(=O)OC2CC3=C[C@@H](C/C(C)=C/C(OC(=O)/C=C/C)[C@H]12)OC3=O (stereo partly drawn) [DETD-24] | > 7.5
42 | C=C1C(=O)OC2CC3=C[C@@H](C/C(C)=C/C(OC(=O)C=C(C)CCC=C(C)C)[C@H]12)OC3=O (stereo partly drawn) [DETD-14] | > 7.5
43 | C=C1C(=O)OC2CC3=C[C@@H](C/C(C)=C/C(OC(=O)Cc4cccc5cccnc45)[C@H]12)OC3=O (stereo partly drawn) [DETD-52] | > 15
44 | C=C1C(=O)OC2CC3=C[C@@H](C/C(C)=C/[C@H](OC(=O)Cc4cccc5ccccc45)[C@H]12)OC3=O (stereo partly drawn) [DETD-62] | 7.4

What follows are molecules tested on TS/A (ER+, Her2−) murine mammary cancer cells (assay: MTT cell viability assay, TS/A cells). Settings: Mus musculus, 24 h, read-out: IC50 on cell viability, TS/A (ER+, Her2−).
Assay type: cell-based
Method: as §2, §3

Row | Structure (SMILES) | IC50 [µM]
45 | C=C1C(=O)OC2CC3=C[C@@H](C/C(C)=C/C(OC(=O)/C=C/C)[C@H]12)OC3=O (stereo partly drawn) [DETD-24] | 2.3
46 | C=C1C(=O)OC2CC3=C[C@@H](C/C(C)=C/C(OC(=O)C=C(C)CCC=C(C)C)[C@H]12)OC3=O (stereo partly drawn) [DETD-14] | > 7.5
47 | C=C1C(=O)OC2CC3=C[C@@H](C/C(C)=C/C(OC(=O)Cc4cccc5cccnc45)[C@H]12)OC3=O (stereo partly drawn) [DETD-52] | > 7.5
48 | C=C1C(=O)OC2CC3=C[C@@H](C/C(C)=C/[C@H](OC(=O)Cc4cccc5ccccc45)[C@H]12)OC3=O (stereo partly drawn) [DETD-62] | > 7.5
